Some results are limits rather than exact numbers.

Data set [1] has as its target T1, Xanthine dehydrogenase/oxidase (Bos taurus, UniProt P80457). Kind of data set: Inhibition of bovine xanthine oxidase assessed as reduction in uric acid formation using xanthine as substrate preincubated for 10 mins followed by substrate addition by UV spectrophotometric method.
For data set [2], the target named is T1, Xanthine dehydrogenase/oxidase. Kind of data set: Inhibition of bovine xanthine oxidase assessed as reduction in uric acid formation at 50 uM using xanthine as substrate preincubated for 10 mins followed by substrate addition by UV spectrophotometric method. As to conditions: cattle; call rule not given here.
Data set [3] has the same target. Kind of data set: Mixed inhibition of bovine xanthine oxidase assessed as reduction in uric acid formation up to 0.6 uM using xanthine as substrate preincubated for 10 mins followed by substrate addition by Lineweaver-Burk plot analysis. Conditions: cattle.
For data set [4] the target is unchanged. The experiment in a line: Potency index, ratio of allopurinol IC50 to test compound IC50 for bovine xanthine oxidase. Conditions: cattle.

T1 sequence (P80457 whole entry): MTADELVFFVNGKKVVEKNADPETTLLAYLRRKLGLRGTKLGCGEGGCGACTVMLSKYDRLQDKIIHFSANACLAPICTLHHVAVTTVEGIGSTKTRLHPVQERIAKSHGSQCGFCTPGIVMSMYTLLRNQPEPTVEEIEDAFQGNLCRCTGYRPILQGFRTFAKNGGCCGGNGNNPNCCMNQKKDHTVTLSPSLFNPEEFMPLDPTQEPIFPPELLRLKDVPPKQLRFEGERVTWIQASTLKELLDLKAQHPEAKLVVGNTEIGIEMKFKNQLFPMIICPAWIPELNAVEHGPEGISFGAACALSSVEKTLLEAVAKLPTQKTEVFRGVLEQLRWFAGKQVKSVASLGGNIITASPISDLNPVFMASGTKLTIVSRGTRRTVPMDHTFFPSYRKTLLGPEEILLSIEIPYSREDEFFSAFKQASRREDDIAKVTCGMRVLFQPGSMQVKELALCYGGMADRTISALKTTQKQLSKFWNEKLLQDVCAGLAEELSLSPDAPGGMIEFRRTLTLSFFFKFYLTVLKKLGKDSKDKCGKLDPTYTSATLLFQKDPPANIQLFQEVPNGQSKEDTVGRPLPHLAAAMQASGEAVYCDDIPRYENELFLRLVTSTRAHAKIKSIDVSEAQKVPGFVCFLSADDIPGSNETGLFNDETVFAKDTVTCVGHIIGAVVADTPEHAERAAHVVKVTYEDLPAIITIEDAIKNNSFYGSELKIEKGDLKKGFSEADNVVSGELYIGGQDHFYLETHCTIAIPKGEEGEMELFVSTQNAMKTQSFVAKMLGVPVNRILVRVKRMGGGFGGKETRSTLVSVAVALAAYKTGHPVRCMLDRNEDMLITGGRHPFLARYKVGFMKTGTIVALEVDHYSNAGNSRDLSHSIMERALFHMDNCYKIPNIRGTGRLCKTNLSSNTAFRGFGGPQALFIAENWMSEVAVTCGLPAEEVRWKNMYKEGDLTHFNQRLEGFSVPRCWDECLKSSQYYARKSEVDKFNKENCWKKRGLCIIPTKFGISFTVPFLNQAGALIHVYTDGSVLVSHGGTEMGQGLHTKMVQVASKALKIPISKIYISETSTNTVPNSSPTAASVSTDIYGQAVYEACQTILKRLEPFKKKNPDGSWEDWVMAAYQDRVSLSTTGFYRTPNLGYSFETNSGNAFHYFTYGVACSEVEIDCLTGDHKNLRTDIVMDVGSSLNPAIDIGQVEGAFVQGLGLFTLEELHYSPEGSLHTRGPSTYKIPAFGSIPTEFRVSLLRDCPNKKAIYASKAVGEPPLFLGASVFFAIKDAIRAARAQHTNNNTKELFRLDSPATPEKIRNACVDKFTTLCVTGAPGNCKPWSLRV

Take `N#Cc1cccc(COc2ccc(NC(=O)c3ccncc3)cc2C#N)c1`: in data set [1], the IC50 (usually the concentration at which inhibition is half-maximal) stood at 2000 nM.

For the molecule `CCCCOc1ccc(NC(=O)c2ccncc2)cc1C#N`, the IC50 in data set [1] was 2300 nM.

As to `CCC(C)Oc1ccc(NC(=O)c2cccnc2)cc1C#N` (centres undefined), the inhibition (usually the percentage by which the read-out fell short of the control) at 50 µM in data set [2] is below 60%.

`CCCCCOc1ccc(NC(=O)c2ccncc2)cc1C#N`: the half-inhibitory concentration (IC50) in data set [1] stood at 3000 nM.

`CCCCCCCCOc1ccc(NC(=O)c2cccnc2)cc1C#N`: the inhibition at 50 µM in data set [2] was below 60%.

For `N#Cc1cc(NC(=O)c2cccnc2)ccc1OC1CCCC1`, the inhibition at 50 µM in data set [2] was below 60%.

As for `N#Cc1cc(NC(=O)c2cccnc2)ccc1OCc1ccc(Cl)cc1`, in data set [2], the inhibition at 50 µM is below 60%.

For the molecule `CC(C)CCOc1ccc(NC(=O)c2ccccn2)cc1C#N`, the inhibition at 50 µM in data set [2] was below 60%.

As for `CC(C)Oc1ccc(NC(=O)c2ccncc2)cc1C#N`, in data set [1], the IC50 is 9500 nM.

Regarding `COc1ccccc1COc1ccc(NC(=O)c2ccncc2)cc1C#N`, the half-inhibitory concentration (IC50) in data set [1] turned out to be 1800 nM.

Consider `N#Cc1cc(NC(=O)c2ccncc2)ccc1OCc1ccccc1`, for which the half-inhibitory concentration (IC50) in data set [1] amounted to 900 nM.

In the case of `CCCCCCCCOc1ccc(NC(=O)c2ccncc2)cc1C#N`, the IC50 in data set [1] was 19200 nM.

For `CCC(C)Oc1ccc(NC(=O)c2ccncc2)cc1C#N` (centres undefined), in data set [1], the IC50 was determined as 6100 nM.

For `COc1ccc(COc2ccc(NC(=O)c3ccncc3)cc2C#N)cc1`, in data set [1], the half-inhibitory concentration (IC50) is 600 nM.

Consider `CCCOc1ccc(NC(=O)c2ccncc2)cc1C#N`, for which, in data set [1], the IC50 came to 3900 nM.

For the molecule `CCCCCCCOc1ccc(NC(=O)c2ccncc2)cc1C#N`, in data set [1], the IC50 was determined as 5000 nM.

Turning to `COCCOc1ccc(NC(=O)c2cccnc2)cc1C#N`, in data set [2], the inhibition at 50 µM was below 60%.

With `CCCOc1ccc(NC(=O)c2cccnc2)cc1C#N`, the inhibition at 50 µM in data set [2] was below 60%.

As for `CCCCCCOc1ccc(NC(=O)c2ccncc2)cc1C#N`, in data set [1], the IC50 is 2700 nM.

With `CCCCOc1ccc(NC(=O)c2cccnc2)cc1C#N`, in data set [2], the inhibition at 50 µM is below 60%.

As to `N#Cc1cc(NC(=O)c2ccncc2)ccc1OC1CCCC1`, the IC50 in data set [1] worked out at 5700 nM.

In the case of `CCCCCCCOc1ccc(NC(=O)c2cccnc2)cc1C#N`, in data set [2], the inhibition at 50 µM was below 60%.

With `CCCCOc1ccc(NC(=O)c2ccccn2)cc1C#N`, the inhibition at 50 µM in data set [2] was below 60%.

For `N#Cc1ccccc1COc1ccc(NC(=O)c2ccncc2)cc1C#N`, in data set [1], the IC50 came to 300 nM. Also, in data set [3], the “inhibition (INH)” value is listed as “Active”. Also, the “Ratio IC50” value in data set [4] turned out to be 28.3.

For `COCCOc1ccc(NC(=O)c2ccncc2)cc1C#N`, the inhibition at 50 µM in data set [2] was below 60%.

For `N#Cc1cc(NC(=O)c2cccnc2)ccc1OCc1ccccc1`, the concentration for half-maximal inhibition (IC50) in data set [1] amounted to 32800 nM.

On to `CC(C)COc1ccc(NC(=O)c2cccnc2)cc1C#N`, for which, in data set [2], the inhibition at 50 µM was below 60%.

Take `CCCCCOc1ccc(NC(=O)c2cccnc2)cc1C#N`: the inhibition at 50 µM in data set [2] is below 60%.

As to `CC(C)COc1ccc(NC(=O)c2ccccn2)cc1C#N`, the inhibition at 50 µM in data set [2] is below 60%.

For the molecule `N#Cc1cc(NC(=O)c2ccccn2)ccc1OCc1ccccc1`, the IC50 in data set [1] is 22600 nM.

Take `CC(C)CCOc1ccc(NC(=O)c2ccncc2)cc1C#N`: the IC50 in data set [1] was determined as 2000 nM.

For the molecule `CCCCCCOc1ccc(NC(=O)c2cccnc2)cc1C#N`, in data set [2], the inhibition at 50 µM was below 60%.

With `CC(C)COc1ccc(NC(=O)c2ccncc2)cc1C#N`, in data set [1], the half-inhibitory concentration (IC50) came to 1600 nM. In addition, the “Ratio IC50” value in data set [4] is recorded as 5.3.

For `N#Cc1cc(-c2n[nH]c(-c3ccncc3)n2)ccn1` [TOPIROXOSTAT], the 50% inhibitory concentration (IC50) in data set [1] is 15 nM.

As to `CC(C)Oc1ccc(NC(=O)c2cccnc2)cc1C#N`, the inhibition at 50 µM in data set [2] is below 60%.

Take `CC(C)CCOc1ccc(NC(=O)c2cccnc2)cc1C#N`: the half-inhibitory concentration (IC50) in data set [1] came to 35000 nM.

With `N#Cc1cc(NC(=O)c2ccccn2)ccc1OCc1ccc(Cl)cc1`, in data set [2], the inhibition at 50 µM is below 60%.

On to `N#Cc1ccc(COc2ccc(NC(=O)c3cccnc3)cc2C#N)cc1`, for which, in data set [2], the inhibition at 50 µM is below 60%.

As for `N#Cc1cc(NC(=O)c2ccncc2)ccc1OCc1ccc(Cl)cc1`, the IC50 in data set [1] worked out at 800 nM.

As to `N#Cc1cc(NC(=O)c2ccccc2)ccc1OCc1ccccc1`, the inhibition at 50 µM in data set [2] was below 60%.

As for `N#Cc1ccc(COc2ccc(NC(=O)c3ccncc3)cc2C#N)cc1`, the half-inhibitory concentration (IC50) in data set [1] is 2300 nM.

For the origin of these results see ChEMBL document CHEMBL4130506, “Design, synthesis and biological evaluation of N-(4-alkoxy-3-cyanophenyl)isonicotinamide/nicotinamide derivatives as novel xanthine oxidase inhibitors” (Eur J Med Chem, 2017).
